Experimental data reported in US20100292260A1, “6-VINYL PYRIMIDINE AND PYRIMIDINONE DERIVATIVES AND THE USE THEREOF” (priority 2005, published 2010).
Read-outs that look alike come from different tables or passages of the source.

Assays:
[1] = target: T1, HIV-1 (recombinant) reverse transcriptase (Human immunodeficiency virus type 1 group M subtype B, UniProt P03366); assay: Enzyme test: reverse transcription reaction in vitro with recombinant RT, wild type; type: biochemical
T1 construct: 20-50 nM HIV-1 (recombinant) reverse transcriptase
Procedure: (§1) In a final volume of 25 microlitres the following reagents were mixed: 50 mM Tris-HCl pH 7.5, 0.25 mg/ml BSA, 0.5 mM DTT, 20-50 nM HIV-1 (recombinant) reverse transcriptase, nucleotide substrate dTTP marked radioactively (^3H, 4 Ci/mmol) and nucleic acid (poly(rA)/oligo(dT)). The concentrations of dTTP and poly(rA)/oligo(dT) in standard conditions were 5 μM and 0.5 μM, respectively.
(§2) The reaction mixture is incubated 10 min. at 37° C. and 20 μl are removed and deposited on a GF/C Whatman glass fibre filter measuring 25 mm in diameter. The filters are washed 3 times for 5 min. in 5% trichloroacetic acid and once for 5 min. in absolute alcohol. After being dried, the filters are immersed in a scintillating mixture (Packard) and the acid precipitable radioactivity is measured by a scintillation counter for β-emitting isotopes (Beckman).
(§3) The dose-response curves obtained by means of samples of enzyme activity in the presence of increasing doses of inhibitor were analysed according to the equation E(%)=Emax/([…], where E(%) is the fraction of enzyme activity that is measurable in the presence of each concentration of inhibitor, Emax is the activity in the absence of an inhibitor, I is the concentration of inhibitor. The ID50 was calculated by analysing data using the GraphPad Prism graphic interpolation programme (for Macintosh).

HIV-1 mutant K103N = assay: Inhibition of viral proliferation on culture cells (MT-4, MTT), K103N mutant; type: cell-based
Procedure: (§4) The biological activity of the compounds was evaluated on lymphoid cell lines MT-4 against the wild strain of HIV-1 NL4-3. The MT-4 cells were briefly infected with the appropriate HIV-1 or the infection was simulated to determine the cytoxicity, in the presence of different concentrations of potential inhibitor compounds. 5 days after the infection a colorimetric method was used that involves using a tetrazole salt (MTT) to evaluate the number of surviving cells. The mutant IRLL98 HIV-1 contains the following mutations in the coding sequence for RT:M41L, D67N, Y181C, M184V, R211K, T215Y (resistance to NRTI) and the mutations K101Q, Y181C, G190A (resistance to NNRTI). The H1V-1 mutants containing multi-NNRTI mutations, K103N or Y188L as mutants were supplied by the Medical Research Council Centralised Facility for AIDS Reagents, Herfordshire, UK.

HIV-1 mutant Y188L = assay: Inhibition of viral proliferation on culture cells (MT-4, MTT), Y188L mutant; type: cell-based
Procedure: as §4

[2] = Cytotoxicity in mock-infected MT-4 cells (MTT); type: cell-based; details: human
Procedure: as §4

[3] = test system: wild strain of HIV-1 NL4-3; assay: Inhibition of viral proliferation on culture cells (MT-4, MTT), wild strain; type: cell-based
Procedure: as §4

HIV-1 mutant Y181C = assay: Inhibition of viral proliferation on culture cells (MT-4, MTT), Y181C mutant; type: cell-based
Procedure: as §4

[4] = target: T2, reverse transcriptase containing the mutation Y181I (Human immunodeficiency virus type 1 group M subtype B, UniProt P03366, Y780I); assay: Enzyme test with mutated reverse transcriptase Y181I; type: biochemical, HIV-1
T2 construct: cloning the gene of the mutated RT in an expression vector for prokariotic cells; made in house
Procedure: as §1, §2
(§5) In some experiments, the HIV-1 recombinant reverse transcriptase was substituted by a reverse transcriptase containing the mutations K.103N and Y181I. They were produced by cloning the gene of the mutated RT in an expression vector for prokariotic cells according to the method reported in the literature (Maga G, Amacker M, Ruel N, Hubscher U, Spadari S. Resistance to nevirapine of HIV-1 reverse transcriptase mutants: loss of stabilizing interactions and thermodynamic or steric barriers are induced by different single amino acid substitutions. J Mol Biol. Dec. 19, 1997; 274(5):738-47).
as §3

[5] = target: T3, reverse transcriptase containing the mutation K103N (Human immunodeficiency virus type 1 group M subtype B, UniProt P03366, K702N); assay: Enzyme test with mutated reverse transcriptase K103N; type: biochemical, HIV-1
T3 construct: cloning the gene of the mutated RT in an expression vector for prokariotic cells; made in house
Procedure: as §1, §2, §5, §3

HIV-1 mutant Y181L = assay: Inhibition of viral proliferation on culture cells (MT-4, MTT), Y181L mutant; type: cell-based; details: Human immunodeficiency virus 1, MT4, read-out: EC50 Y181L
[6] = Human immunodeficiency virus 1, read-out: Y188L
[7] = Human immunodeficiency virus 1, read-out: Y181C
[8] = Table 2, enzyme test, read-out: WT
[9] = Human immunodeficiency virus 1, read-out: K100N
[10] = Human immunodeficiency virus 1, NL43, read-out: NL4-3 wt
[11] = Table 1, recombinant RT wild type, read-out: ID50 WT
[12] = Human immunodeficiency virus 1, MT4, read-out: EC50 K103N
[13] = Human immunodeficiency virus 1, NL43, MT4, read-out: EC50 NL4-3 wt

SMILES	EC50 (HIV-1 mutant Y188L; [6]) [µM]	CC50 at 5 days [2] [µM]	EC50 (HIV-1 mutant Y181C; [7]) [µM]	IC50 [1, 8] [µM]	EC50 (HIV-1 mutant K103N; [9]) [µM]	IC50 [4] [µM]	activity in cell tests on wild type, in words [3]	EC50 [3, 10] [µM]	IC50 [5] [µM]	further results
Cc1c(Cc2c(F)cccc2F)nc(SCC#Cc2ccc([N+](=O)[O-])cc2)[nH]c1=O [Compound 27a, 6-(2,6-Difluorobenzyl)-2-(3-(4-nitrophenyl)-propynylsulfanyl)-5-methylpyrimidine-4(3H)-one]	> 58.6	> 58.6	> 58.6							IC50 ([1]; Table 3, enzyme test, read-out: WT): 0.416 µM; EC50 (HIV-1 mutant K103N; Human immunodeficiency virus 1, read-out: K103N): > 58.6 µM; EC50 ([3]; Human immunodeficiency virus 1, NL43, read-out: NLA-3wt): 40.1 µM
COc1ccc(C=CCSc2nc(C(C)c3c(Cl)cccc3Cl)c(C)c(=O)[nH]2)cc1 (stereo not shown) [Compound 26g]	1.26	> 10.8	3.6	0.018	2.47	> 20	nanomolar and subnanomolar activity	0.009	> 20	
C=Cc1nc(SC)nc(N(C)C)c1I [Compound 6a]										IC50 [1, 11]: > 400 µM
Cc1c(C(C)c2c(Cl)cccc2Cl)nc(SCC=Cc2ccc([N+](=O)[O-])cc2)[nH]c1=O (stereo not shown) [Compound 26h]				0.102		> 20			> 20	
Cc1c(Cc2c(F)cccc2F)nc(SCC=Cc2ccc([N+](=O)[O-])cc2)[nH]c1=O [Compound 26i]	> 11.7	11.7	> 11.7	11.9	> 11.7	> 20		0.26	> 20	
C=Cc1nc(S(C)(=O)=O)nc(N(C)C)c1I [Compound 8b]		22.9				> 400			> 400	IC50 [1, 11]: 275 µM; EC50 (HIV-1 mutant K103N; [12]): > 22.9 µM; EC50 [3, 13]: > 22.9 µM; EC50 (HIV-1 mutant Y181L): > 22.9 µM
CCc1c(C(C)c2c(F)cccc2F)nc(SCC=Cc2ccc(C#N)cc2)[nH]c1=O (stereo not shown) [Compound 26r]	> 27.2	27.2	> 27.2	0.048	> 27.2			0.59		
COc1ccc(C=CCSc2nc(C(C)c3c(F)cccc3F)c(C)c(=O)[nH]2)cc1 (stereo not shown) [Compound 26n]	0.07	> 11.7	0.13	0.292	0.26	> 20	nanomolar and subnanomolar activity	0.0002	3.7	activity in cell tests on mutant K103N, in words (HIV-1 mutant K103N): micromolar and submicromolar activity; activity in cell tests on mutant Y188L, in words (HIV-1 mutant Y188L): micromolar and submicromolar activity; activity in cell tests on mutant Y181C, in words (HIV-1 mutant Y181C): micromolar and submicromolar activity
CCc1c(Cc2c(Cl)cccc2Cl)nc(SCC=Cc2ccc(C#N)cc2)[nH]c1=O [Compound 26c]		> 54.8		0.188	> 54.8			1.73		Y181C, % at given concentration (HIV-1 mutant Y181C; Table 2, at 54.82): 41% at
COc1ccc(C#CCSc2nc(C(C)c3c(Cl)cccc3Cl)c(C)c(=O)[nH]2)cc1 (racemic) [Compound 27b]										EC50 (HIV-1 mutant K103N; Table 3, cell test, read-out: K103N): > 54.5 µM; EC50 (HIV-1 mutant Y188L; Table 3, cell test, read-out: Y188L): 24.8 µM; EC50 ([3]; Table 3, cell test, read-out: NLA-3wt): 0.5 µM; EC50 (HIV-1 mutant Y181C; Table 3, cell test, read-out: Y181C): 33.5 µM
Cc1c(C(C)c2c(F)cccc2F)nc(SCC=Cc2ccc(C#N)cc2)[nH]c1=O (stereo not shown) [Compound 26o]	> 59.1	> 59.1	> 59.1	0.161	> 59.1			0.14		
CCc1c(C(C)c2c(F)cccc2F)nc(SCC=Cc2ccc(OC)cc2)[nH]c1=O (stereo not shown) [Compound 26p]	0.63	5.54	0.7	0.016	1.02	> 20	nanomolar and subnanomolar activity	0.0002	0.4	activity in cell tests on mutant K103N, in words (HIV-1 mutant K103N): micromolar and submicromolar activity; activity in cell tests on mutant Y188L, in words (HIV-1 mutant Y188L): micromolar and submicromolar activity; activity in cell tests on mutant Y181C, in words (HIV-1 mutant Y181C): micromolar and submicromolar activity
Cc1c(Cc2c(Cl)cccc2Cl)nc(SCC=Cc2ccc([N+](=O)[O-])cc2)[nH]c1=O [Compound 26b]	> 10.8	> 10.8	> 10.8	3.81	> 10.8	> 20		> 10.8	> 20	
CCc1c(Cc2c(Cl)cccc2Cl)nc(SCC=Cc2ccc(OC)cc2)[nH]c1=O [Compound 26e]	> 0.19	0.19	> 0.19	0.056	> 0.19	> 20	nanomolar and subnanomolar activity	0.0015	> 20	
CCc1c(C(C)c2c(F)cccc2F)nc(SCC=Cc2ccc([N+](=O)[O-])cc2)[nH]c1=O (stereo not shown) [Compound 26q]	1.94	5.75	> 5.75	0.009	> 5.75	> 20	nanomolar and subnanomolar activity	0.0004	> 20	
C=Cc1cc(N(C)C)nc(SC)n1 [Compound 6c]		57.4								IC50 [1, 11]: > 400 µM; EC50 (HIV-1 mutant K103N; [12]): > 128 µM; EC50 [3, 13]: > 128 µM; EC50 (HIV-1 mutant Y181L): > 128 µM
Cc1c(Cc2c(Cl)cccc2Cl)nc(SCC=Cc2ccc(N(C)C)cc2)[nH]c1=O [Compound 26d]	> 54.4	> 54.4	> 54.4	0.788	> 54.4			> 54.4		
C=Cc1cc(N(CC)CC)nc(S(C)(=O)=O)n1 [MB3B, reference compound]						> 400			> 400	IC50 [1, 11]: 21.3 µM
Cc1c(C(C)c2c(F)cccc2F)nc(SCC=Cc2ccc([N+](=O)[O-])cc2)[nH]c1=O (stereo not shown) [Compound 26m]	> 11.3	> 11.3	> 11.3	0.283	> 11.3	> 20		0.14	> 20	
CCc1c(Cc2c(Cl)cccc2Cl)nc(SCC=Cc2ccc([N+](=O)[O-])cc2)[nH]c1=O [Compound 26f]				2.5		> 20			> 20	
COc1ccc(C=CCSc2nc(Cc3c(F)cccc3F)c(C)c(=O)[nH]2)cc1 [Compound 26l]	> 3.93	3.93	> 3.93	0.25	> 3.93	> 20	nanomolar and subnanomolar activity	0.043	> 20	
COc1ccc(/C=C/CSc2nc(Cc3c(Cl)cccc3Cl)c(C)c(=O)[nH]2)cc1 [Compound 26a]	> 0.96	0.96	> 0.96	0.007	> 0.96	> 20	nanomolar and subnanomolar activity	0.015	9	activity in cell tests on mutant K103N, in words (HIV-1 mutant K103N): micromolar and submicromolar activity; activity in cell tests on mutant Y188L, in words (HIV-1 mutant Y188L): micromolar and submicromolar activity; activity in cell tests on mutant Y181C, in words (HIV-1 mutant Y181C): micromolar and submicromolar activity
